Test results reported in US5571820A, “Heterocyclic compound” (Taisho Pharmaceutical Co., Ltd., priority 1992, dated 1996).
pEC50: −log10 of the molar value.

Tests used:
serotonin 4 receptor [1] = molecular target: T1, serotonin 4 receptor (Cavia porcellus, UniProt O70528); experiment: Serotonin 4 receptor stimulating activity: twitch responses of electrically stimulated ileum longitudinal muscle strips; type: cell-based, guinea pig (Hartley); settings: for pEC50: twitch responses, guinea pig ileum longitudinal muscle strips, cumulative additions of agonist, read-out: ED50 of the serotonin 4 receptor stimulating activity
T1 construct: from tissue; host or cells: ileum longitudinal muscle strips of Hartley guinea pig
T1 sequence (O70528 whole entry): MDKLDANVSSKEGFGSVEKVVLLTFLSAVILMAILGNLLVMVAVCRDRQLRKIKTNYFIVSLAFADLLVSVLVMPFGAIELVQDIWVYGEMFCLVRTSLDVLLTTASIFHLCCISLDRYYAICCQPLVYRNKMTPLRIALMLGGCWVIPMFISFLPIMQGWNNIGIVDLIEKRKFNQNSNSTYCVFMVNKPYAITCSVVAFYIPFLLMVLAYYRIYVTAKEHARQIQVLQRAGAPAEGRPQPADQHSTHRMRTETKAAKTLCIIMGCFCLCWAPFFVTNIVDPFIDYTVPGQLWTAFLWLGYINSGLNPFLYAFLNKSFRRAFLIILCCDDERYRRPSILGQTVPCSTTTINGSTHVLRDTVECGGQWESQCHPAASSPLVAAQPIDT
Excerpt: Experiment 1. Serotonin 4 Receptor Stimulating Activity Compounds Tested
Twitch responses were examined in longitudinal muscle strips of guinea pig by a modification of the method described in The Journal of Pharmacology and Experimental Therapeutics, 252, 1378, 1990.
From Hartley guinea pigs, a section of ileum 25 cm in length and proximal to the ileocecal junction was removed. The longitudinal muscle strips obtained from two segments of ileum about 4 cm each in length were used for this experiment. The longitudinal muscle strips were suspended in Krebs' solution at 32° to 34° C. and bubbled with 95% O2 and 5% CO2 under a load of about 0.8 g. Twitch responses were recorded under electrical stimulation of 0.2 Hz, 1 msec pulse duration, using force displacement transducers. The longitudinal muscle strips, stimulated at supramaximal voltage, were allowed to equilibrate for about an hour. […] The test was carried out by exposing the strips to cumulative additions of agonist at least at 45-minute intervals.

[2] = tested on: gastrointestinal motor functions; settings: Alimentary Pharmacology and Therapeutics, 6, 273, 1992; cited from earlier work
serotonin 4 receptor [3] = settings: Alimentary Pharmacology and Therapeutics, 6, 273, 1992; cited from earlier work

SMILES | pEC50 (serotonin 4 receptor [1]) | also measured
NCCc1c[nH]c2ccc(O)cc12 [5-hydroxytryptamine (5-HT), 5-hydroxytryptamine] |  | enhancement of twitch responses (serotonin 4 receptor [1]; 10^-8 M): twitch responses were enhanced
COc1cc(N)c(Cl)cc1C(=O)NC1CCN(CCCOc2ccc(F)cc2)CC1OC (centres unmarked) [Cisapride] |  | effect on gastrointestinal motor functions and conditions [2]: accelerate gastrointestinal motor functions and improve gastrointestinal conditions; stimulation of serotonin 4 receptor (serotonin 4 receptor [3]): stimulants of serotonin 4 receptor
CCn1c(=O)c(C(=O)N[C@H]2C[C@H]3CC[C@@H](C2)N3C)cc2ccccc21 [Compound 2] | 6.86 | 
CCCn1c(=O)c(C(=O)N[C@H]2C[C@H]3CC[C@@H](C2)N3C)cc2ccccc21 [Compound 3] | 6.38 | 
CCCCn1c(=O)c(C(=O)N[C@H]2C[C@H]3CC[C@@H](C2)N3C)cc2ccccc21 [Compound 4] | < 5.52 | 
CC(C)Cn1c(=O)c(C(=O)N[C@H]2C[C@H]3CC[C@@H](C2)N3C)cc2ccccc21 [Compound 5] | 6.01 | 
CN1[C@@H]2CC[C@H]1C[C@@H](NC(=O)c1cc3ccccc3[nH]c1=O)C2 [Compound 6] | < 5.52 | 
CCCCn1c(=O)c(C(=O)N[C@H]2C[C@H]3CC[C@@H](C2)N3C)c(O)c2ccccc21 [Compound 7] | < 5.52 | 
COc1cc(N)c(Cl)cc1C(=O)NC1CCN2CCCC1C2 (centres unmarked) [renzapride] |  | effect on gastrointestinal motor functions and conditions [2]: accelerate gastrointestinal motor functions and improve gastrointestinal conditions; stimulation of serotonin 4 receptor (serotonin 4 receptor [3]): stimulants of serotonin 4 receptor
